In assay [1] the test system is human monocyte stimulated cytokine production (TNF-α). Description: Monocyte assay (LPS-stimulated TNF-α production). Format: cell-based. Particulars: for IC50: 24 h, 200 ng/mL LPS, TNF-α by ELISA; for inhibition at 0.3 µM: read-out: inhibition at 300 nM in the monocyte assay. The procedure:
Effect of IKK-β inhibition on human monocyte stimulated cytokine production was assessed as follows: Monocytes were isolated from heparinized whole blood by Ficoll gradient, followed by purification of CD14+ cells using MACS magnetic cell separation beads. Isolated monocytes were then adhered to 96-well culture plates at 1×10^6 cells/mL in RPMI 1640 10% FBS (JRH Biosciences, Lenexa Kans.) for 2 h. Test compounds are added to the wells 30 minutes prior to stimulation with a final vehicle concentration of 0.1% DMSO. Monocytes were activated by the addition of 200 ng/mL endotoxin (LPS; E. coli serotype 026:B6)(Sigma, St. Louis, Mo.) and incubated for 24 hrs at 37 C. Cell-free supernates were analyzed by ELISA for TNF-α using Pharmingen matched pair Abs. Viability of the cells was determined by 10% trypan blue exclusion.
A general note: In an ELISA, binding on a coated surface is turned into a signal by an enzyme label.

Assay [2] concerns the target T1, Recombinant human IKKβ (residues 1-737) (Homo sapiens, UniProt O14920).
T1 construct: Recombinant human IKKβ (residues 1-737); GST (C); made in house
T1 sequence (O14920 1-737): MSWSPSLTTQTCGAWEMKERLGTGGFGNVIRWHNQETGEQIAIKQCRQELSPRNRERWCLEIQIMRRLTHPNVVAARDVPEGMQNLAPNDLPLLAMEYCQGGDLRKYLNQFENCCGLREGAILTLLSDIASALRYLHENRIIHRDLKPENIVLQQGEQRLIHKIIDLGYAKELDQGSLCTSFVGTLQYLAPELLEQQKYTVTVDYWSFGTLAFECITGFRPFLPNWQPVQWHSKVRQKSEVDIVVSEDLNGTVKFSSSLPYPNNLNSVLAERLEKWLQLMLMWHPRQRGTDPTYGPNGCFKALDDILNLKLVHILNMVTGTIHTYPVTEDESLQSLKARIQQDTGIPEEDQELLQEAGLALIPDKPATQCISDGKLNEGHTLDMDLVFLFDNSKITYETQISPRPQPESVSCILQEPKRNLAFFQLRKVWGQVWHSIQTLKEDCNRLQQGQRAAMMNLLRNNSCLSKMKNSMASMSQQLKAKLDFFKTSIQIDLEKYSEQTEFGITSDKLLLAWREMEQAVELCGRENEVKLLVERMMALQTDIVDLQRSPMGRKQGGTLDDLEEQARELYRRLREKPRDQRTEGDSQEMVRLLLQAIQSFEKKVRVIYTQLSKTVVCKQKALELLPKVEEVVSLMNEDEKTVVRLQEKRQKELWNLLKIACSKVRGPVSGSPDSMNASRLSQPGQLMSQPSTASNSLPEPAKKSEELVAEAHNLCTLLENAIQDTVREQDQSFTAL
Briefly: IKK2 assay (TR-FRET). Format: biochemical. The note with it: ATP 1 μM final, read-out: pIC50 against IKK2 (converted). The essentials:
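Baculovirus-expressed C-terminal GST-tagged IKKβ (0.5-5 nM final) in HEPES pH 7.4, MgCl2, CHAPS, DTT, BSA with 1.7% DMSO; 25 nM GST-IB substrate and 1 μM ATP, 15 min at room temperature. EDTA stop; phospho-Ser32/36 detected by Eu-antibody/APC-anti-GST TR-FRET, 665/620 nm ratio.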
On the technique in general: TR-FRET usually uses a lanthanide donor and a delayed reading to cut background.

Where a name gives a salt, the structure may show the parent alone.

Regarding `CCS(=O)(=O)N1CCC(c2c[nH]c3c(C(N)=O)cc(-c4ccc5c(c4)C(NCC(C)C)CC5)cc23)CC1` (stereo not shown) [Example 33, 3-[1-(ethylsulfonyl)-4-piperidinyl]-5-{3-[(2-methylpropyl)amino]-2,3-dihydro-1H-inden-5-yl}-1H-indole-7-carboxamide trifluoroacetate], the IC50 in assay [1] was not above 1.5 µM; in assay [2], not above 10 µM.
For `CCS(=O)(=O)N1CCC(c2c[nH]c3c(C(N)=O)cc(-c4cc(CNCCC#N)ccc4F)cc23)CC1` [Example 35, 5-(5-{[(2-cyanoethyl)amino]methyl}-2-fluorophenyl)-3-[1-(ethylsulfonyl)-4-piperidinyl]-1H-indole-7-carboxamide trifluoroacetate] the same measures were more than 1 µM and not above 10 µM.
The corresponding values for `CCS(=O)(=O)N1CCC(c2c[nH]c3c(C(N)=O)cc(-c4cc(CNCC(F)(F)F)ccc4F)cc23)CC1` [Example 36, 3-[1-(ethylsulfonyl)-4-piperidinyl]-5-(2-fluoro-5-{[(2,2,2-trifluoroethyl)amino]methyl}phenyl)-1H-indole-7-carboxamide trifluoroacetate] are more than 1 µM and not above 10 µM.
The corresponding values for `CCS(=O)(=O)N1CCC(c2c[nH]c3c(C(N)=O)cc(-c4ccc5c(c4)CNCC5)cc23)CC1` [Example 37, 3-[1-(ethylsulfonyl)-4-piperidinyl]-5-(1,2,3,4-tetrahydro-7-isoquinolinyl)-1H-indole-7-carboxamide trifluoroacetate] are not above 1.5 µM and not above 10 µM.
As to `CCS(=O)(=O)N1CCC(c2c[nH]c3c(C(N)=O)cc(-c4cccc(CNCC(F)(F)F)c4)cc23)CC1` [Example 38, 3-[1-(ethylsulfonyl)-4-piperidinyl]-5-(3-{[(2,2,2-trifluoroethyl)amino]methyl}phenyl)-1H-indole-7-carboxamide trifluoroacetate], the IC50 was not above 1.5 µM in assay [1] and not above 10 µM in assay [2].
For orientation: inhibition means the change of the read-out against control, counted positive when it falls. In the case of `CCS(=O)(=O)N1CCC(c2c[nH]c3c(C(N)=O)cc(-c4cccc(CN(C)CC(N)=O)c4)cc23)CC1` [Example 39, 5-(3-{[(2-amino-2-oxoethyl)(methyl)amino]methyl}phenyl)-3-[1-(ethylsulfonyl)-4-piperidinyl]-1H-indole-7-carboxamide trifluoroacetate], the inhibition at 0.3 µM in assay [1] was 0 to 60%. In addition, the IC50 in assay [2] is not above 10 µM.
For `CCS(=O)(=O)N1CCC(c2c[nH]c3c(C(N)=O)cc(-c4csc(CNCC(F)(F)F)n4)cc23)CC1` [Example 40, 3-[1-(ethylsulfonyl)-4-piperidinyl]-5-(2-{[(2,2,2-trifluoroethyl)amino]methyl}-1,3-thiazol-4-yl)-1H-indole-7-carboxamide trifluoroacetate] the same measures were 0 to 60% and not above 10 µM.
For the compound `CCS(=O)(=O)N1CCC(c2c[nH]c3c(C(N)=O)cc(-c4csc(CN(C)C5CCN(C)CC5)c4)cc23)CC1` [Example 42, 3-[1-(ethylsulfonyl)-4-piperidinyl]-5-(5-{[methyl(1-methyl-4-piperidinyl)amino]methyl}-3-thienyl)-1H-indole-7-carboxamide trifluoroacetate], the values for the IC50 in assay [1] and in assay [2] were not above 1.5 µM and not above 10 µM, respectively.
The corresponding values for `CCS(=O)(=O)N1CCC(c2c[nH]c3c(C(N)=O)cc(-c4csc(CN(C)CCC#N)c4)cc23)CC1` [Example 43, 5-(5-{[(2-cyanoethyl)(methyl)amino]methyl}-3-thienyl)-3-[1-(ethylsulfonyl)-4-piperidinyl]-1H-indole-7-carboxamide trifluoroacetate] are not above 1.5 µM and not above 10 µM.
For `CCS(=O)(=O)N1CCC(c2c[nH]c3c(C(N)=O)cc(-c4csc(CN(C)CC(N)=O)c4)cc23)CC1` [Example 44, 5-(5-{[(2-amino-2-oxoethyl)(methyl)amino]methyl}-3-thienyl)-3-[1-(ethylsulfonyl)-4-piperidinyl]-1H-indole-7-carboxamide trifluoroacetate] the same measures were not above 1.5 µM and not above 10 µM.
For `CCS(=O)(=O)N1CCC(c2c[nH]c3c(C(N)=O)cc(-c4csc(CN(C)CCS(=O)(=O)c5ccccc5)c4)cc23)CC1` [Example 45, 3-[1-(ethylsulfonyl)-4-piperidinyl]-5-[5-({methyl[2-(phenylsulfonyl)ethyl]amino}methyl)-3-thienyl]-1H-indole-7-carboxamide trifluoroacetate], the inhibition at 0.3 µM in assay [1] is 0 to 60%. Moreover, in assay [2], the IC50 is not above 10 µM.
The corresponding values for `CCS(=O)(=O)N1CCC(c2c[nH]c3c(C(N)=O)cc(-c4csc(CN5CCCC5c5ccccc5)c4)cc23)CC1` (stereo not shown) [Example 46, 3-[1-(ethylsulfonyl)-4-piperidinyl]-5-{5-[(2-phenyl-1-pyrrolidinyl)methyl]-3-thienyl}-1H-indole-7-carboxamide] are 0 to 60% and not above 10 µM.
`CCS(=O)(=O)N1CCC(c2c[nH]c3c(C(N)=O)cc(-c4csc(CN5CCCC5CN5CCCCC5)c4)cc23)CC1` (stereo not shown) [Example 47, 3-[1-(ethylsulfonyl)-4-piperidinyl]-5-(5-{[2-(1-piperidinylmethyl)-1-pyrrolidinyl]methyl}-3-thienyl)-1H-indole-7-carboxamide]: the inhibition at 0.3 µM in assay [1] lay in the range of 0 to 60%. In addition, the IC50 in assay [2] is not above 10 µM.
For `CCS(=O)(=O)N1CCC(c2c[nH]c3c(C(N)=O)cc(-c4csc(CN5CCC[C@@H]5C(N)=O)c4)cc23)CC1` [Example 48, 5-(5-{[(2R)-2-(aminocarbonyl)-1-pyrrolidinyl]methyl}-3-thienyl)-3-[1-(ethylsulfonyl)-4-piperidinyl]-1H-indole-7-carboxamide] the same measures were 0 to 60% and not above 10 µM.
For `CCS(=O)(=O)N1CCC(c2c[nH]c3c(C(N)=O)cc(-c4csc(CN5CC[C@H](N(C)C)C5)c4)cc23)CC1` [Example 49, 5-(5-{[(3S)-3-(dimethylamino)-1-pyrrolidinyl]methyl}-3-thienyl)-3-[1-(ethylsulfonyl)-4-piperidinyl]-1H-indole-7-carboxamide] the same measures were 0 to 60% and not above 10 µM.
Consider `CCS(=O)(=O)N1CCC(c2c[nH]c3c(C(N)=O)cc(-c4cnn(CCN5CCC(N(C)C)CC5)c4)cc23)CC1` [Example 50, 5-(1-{2-[4-(dimethylamino)-1-piperidinyl]ethyl}-1H-pyrazol-4-yl)-3-[1-(ethylsulfonyl)-4-piperidinyl]-1H-indole-7-carboxamide trifluoroacetate], for which the results for the IC50 in assay [1] and in assay [2] were more than 1 µM and not above 10 µM, respectively.
Regarding `CCS(=O)(=O)N1CCC(c2c[nH]c3c(C(N)=O)cc(-c4cc(CN(C)C)c5c(c4)OCC5)cc23)CC1` [Example 58, 5-{4-[(dimethylamino)methyl]-2,3-dihydro-1-benzofuran-6-yl}-3-[1-(ethylsulfonyl)-4-piperidinyl]-1H-indole-7-carboxamide], the inhibition at 0.3 µM in assay [1] fell in the range of 0 to 60%. The IC50 in assay [2] is not above 10 µM.
For `CCS(=O)(=O)N1CCC(c2c[nH]c3c(C(N)=O)cc(-c4cc(CN5CCOCC5)c5c(c4)OCC5)cc23)CC1` [Example 60, 3-[1-(ethylsulfonyl)-4-piperidinyl]-5-[4-(4-morpholinylmethyl)-2,3-dihydro-1-benzofuran-6-yl]-1H-indole-7-carboxamide] the same measures were 0 to 60% and not above 10 µM.
As to `CCS(=O)(=O)N1CCC(c2c[nH]c3c(C(N)=O)cc(-c4ccc(CNC(C)COC)s4)cc23)CC1` (stereo not shown) [Example 61, 3-[1-(ethylsulfonyl)-4-piperidinyl]-5-[5-({[1-methyl-2-(methyloxy)ethyl]amino}methyl)-2-thienyl]-1H-indole-7-carboxamide], the IC50 in assay [1] is not above 1.5 µM; in assay [2], not above 10 µM.
The corresponding values for `CCS(=O)(=O)N1CCC(c2c[nH]c3c(C(N)=O)cc(-c4cncc(CNCCC#N)c4)cc23)CC1` [Example 62, 5-(5-{[(2-cyanoethyl)amino]methyl}-3-pyridinyl)-3-[1-(ethylsulfonyl)-4-piperidinyl]-1H-indole-7-carboxamide] are not above 1.5 µM and not above 10 µM.
